Test results: patent publication US8268767B2, “Personal wash cleanser comprising defined alkanoyl compounds, defined fatty acyl isethionate surfactant product and skin or hair benefit agent” (priority 2010, dated 2012)

Test system: skin (patch test sites on the intrascapular area of the back)
Assay: Patch Test, 14-day cumulative irritation test
Details: for Patch test Total irritation score: cleansers diluted to 25% w/w, 14-day cumulative score
Procedure: This was randomized, double-blind study. A sufficient number of subjects were recruited to ensure that 25 subjects completed the study. The 14-day cumulative irritation test was conducted as follows. Patching occurred for 14 consecutive days, except on Sundays. Patches applied on Saturday were left in place until Monday, when freshly prepared patches were applied. The designated patch test sites were approximately 2 cm×2 cm on the intrascapular area of the back. Approximately 0.2 mL of the test product was placed onto a Parke-Davis Readi-Bandage® occlusive patch that measured 2 cm×2 cm. Solutions were made by diluting the cleansers to 25% w/w in distilled water. The patch was then applied to the designated test site. The patches were secured with hypoallergenic tape (Scanpor {Allerderm} as needed). A 0.5% sodium dodecyl sulfate (SDS) solution was used as the control in the test.
Each day following application, the patches were removed, the sites evaluated and identical patches reapplied to the same test sites. All evaluations were made using the following 6-point scoring system: • 0=No evidence of any effect • +=Barely perceptible (minimal, faint, uniform or spotty erythema) numerically equivalent to 0.5 • 1=Mild (pink, uniform erythema covering most of the contact site) • 2=Moderate (pink-red, erythema uniform in the entire contact site) • 3=Marked (bright red erythema with/without petechiae or papules) • 4=Severe (deep red erythema with/without vesiculation or weeping)
If a dermal reaction of 3 or 4 occur with any of the test articles at any point during the study, further patch testing on that subject was terminated at the test site involved, and the attained score was assigned to that site for the subsequent scheduled test days.
Cumulative irritation scores, which were the sum of the numerical irritation grades assigned daily during the 14-day test period, were calculated at the end of the study to compare mildness of the test products. […] The data were statistically analyzed using Tukey-Kramer Comparison, and statistical significance was determined at the 95% confidence level.

[1] = first patch test of Table 1 (0.5% SDS control = 783)
[2] = second patch test of Table 1 (0.5% SDS control = 912)

## CCCCCCCCCCCCOS(=O)(=O)[O-].[Na+] [0.5% SDS Solution, sodium dodecyl sulfate]
[1]
  Total irritation score compared to 0.5% SDS solution: 100%
  Patch test Total irritation score: 783
[2]
  Total irritation score compared to 0.5% SDS solution: 100%
  Patch test Total irritation score: 912
